Test results reported in PubChem BioAssay (NCI).
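Grown in 96-well plates, cells were treated for 48 hours with each compound at five concentrations. Insufficient inhibition: endpoint recorded as highest concentration tested. At the GI50, growth is halved. TGI denotes the concentration required for complete inhibition of growth.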

What was measured:
Test in all cases: DTP human tumour cell line panel, 48 h
[1] = system: SF-539 CNS
[2] = system: HOP-92 NSCLC
[3] = system: KM12 colon
[4] = system: TK-10 renal
[5] = system: M14 melanoma
[6] = system: MDA-MB-468 breast
[7] = system: K-562 leukemia
[8] = system: OVCAR-3 ovarian
[9] = system: LOX IMVI melanoma
[10] = system: EKVX NSCLC
[11] = system: A549 NSCLC
[12] = system: SNB-19 CNS
[13] = system: DU-145 prostate
[14] = system: NCI-H226 lung
[15] = system: CCRF-CEM leukemia
[16] = system: UACC-257 melanoma
[17] = system: HS 578T breast
[18] = system: RPMI-8226 leukemia
[19] = system: OVCAR-4 ovarian
[20] = system: NCI-H23 lung
[21] = system: MOLT-4 leukemia
[22] = system: UO-31 renal
[23] = system: OVCAR-8 ovarian
[24] = system: SNB-75 CNS
[25] = system: NCI-H522 lung
[26] = system: ACHN renal
[27] = system: SK-OV-3 ovarian
[28] = system: 786-0 renal

Question: Which TGI [1] does the source give for `COc1cc(-c2ccc3ncnc(N4CCc5ccc(Cl)cc54)c3c2)cnc1Cl` here?
Answer: 11.6 µM

Question: And the GI50 [2]?
Answer: 2.11 µM

Question: And the TGI [2]?
Answer: > 100 µM

Question: And the GI50 [3]?
Answer: 3.99 µM

Question: And the TGI [3]?
Answer: > 100 µM

Question: And the GI50 [4]?
Answer: 2.12 µM

Question: And the TGI [4]?
Answer: 7.87 µM

Question: What about the GI50 [5] of the same compound?
Answer: 3.88 µM

Question: And the TGI [5]?
Answer: > 100 µM

Question: What about the GI50 [6] of the same compound?
Answer: 1.26 µM

Question: What about the TGI [6] of the same compound?
Answer: 4.47 µM

Question: And the GI50 [7]?
Answer: 3.83 µM

Question: What about the TGI [7] of the same compound?
Answer: > 100 µM

Question: And the GI50 [8]?
Answer: 2.49 µM

Question: And the TGI [8]?
Answer: > 100 µM

Question: What about the GI50 [9] of the same compound?
Answer: 2.97 µM

Question: And the TGI [9]?
Answer: 29.5 µM

Question: What about the GI50 [10] of the same compound?
Answer: 1.94 µM

Question: And the TGI [10]?
Answer: > 100 µM

Question: What about the GI50 [11] of the same compound?
Answer: 3.03 µM

Question: And the TGI [11]?
Answer: > 100 µM

Question: And the GI50 [12]?
Answer: 3.78 µM

Question: What about the TGI [12] of the same compound?
Answer: 83.6 µM

Question: What about the GI50 [13] of the same compound?
Answer: 3.21 µM

Question: What about the TGI [13] of the same compound?
Answer: > 100 µM

Question: What about the GI50 [14] of the same compound?
Answer: 2.39 µM

Question: What about the TGI [14] of the same compound?
Answer: 21.5 µM

Question: And the GI50 [15]?
Answer: 5.7 µM

Question: What about the TGI [15] of the same compound?
Answer: > 100 µM

Question: What about the GI50 [16] of the same compound?
Answer: 6.32 µM

Question: And the TGI [16]?
Answer: > 100 µM

Question: And the GI50 [17]?
Answer: 1.84 µM

Question: What about the TGI [17] of the same compound?
Answer: 7.41 µM

Question: And the GI50 [18]?
Answer: 4.44 µM

Question: And the TGI [18]?
Answer: > 100 µM

Question: What about the GI50 [19] of the same compound?
Answer: 3.12 µM

Question: What about the TGI [19] of the same compound?
Answer: 95.5 µM

Question: What about the GI50 [20] of the same compound?
Answer: 2.91 µM

Question: What about the TGI [20] of the same compound?
Answer: > 100 µM

Question: What about the GI50 [21] of the same compound?
Answer: 3.36 µM

Question: What about the TGI [21] of the same compound?
Answer: > 100 µM

Question: And the GI50 [22]?
Answer: 1.14 µM

Question: And the TGI [22]?
Answer: > 100 µM

Question: What about the GI50 [23] of the same compound?
Answer: 3.64 µM

Question: And the TGI [23]?
Answer: > 100 µM

Question: What about the GI50 [24] of the same compound?
Answer: 1.56 µM

Question: And the TGI [24]?
Answer: 7 µM

Question: And the GI50 [25]?
Answer: 2.12 µM

Question: And the TGI [25]?
Answer: 10.1 µM

Question: What about the GI50 [26] of the same compound?
Answer: 2.4 µM

Question: What about the TGI [26] of the same compound?
Answer: 14.4 µM

Question: What about the GI50 [27] of the same compound?
Answer: 3.84 µM

Question: And the TGI [27]?
Answer: > 100 µM

Question: What about the GI50 [28] of the same compound?
Answer: 3.22 µM

Question: And the TGI [28]?
Answer: 27.7 µM
